The text below walks through data of patent US20110262546A1 (priority 2008, published 2011).

In series [1] the test system is ScGT1 cells. Particulars: for % cell viability ± SEM ScGT1: mouse.
In series [2] the target is PrP^Sc in ScN2a cells (Mus musculus, UniProt P04925). Nature of the series: cell-based.
Series [3] has as its system ScN2a cells. As to conditions: mouse.
Series [4] concerns the target PrP^Sc in ScGT1 cells (Mus musculus, UniProt P04925). Nature of the series: cell-based.

Sequence of PrP^Sc in ScN2a cells (P04925 23-230 limits assumed): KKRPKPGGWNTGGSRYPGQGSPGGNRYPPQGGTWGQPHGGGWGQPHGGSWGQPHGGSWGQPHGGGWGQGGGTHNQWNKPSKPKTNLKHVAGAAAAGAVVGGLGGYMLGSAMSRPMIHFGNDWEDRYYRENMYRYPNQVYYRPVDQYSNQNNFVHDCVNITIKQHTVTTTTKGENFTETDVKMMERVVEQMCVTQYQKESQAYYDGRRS
Sequence of PrP^Sc in ScGT1 cells (P04925 23-230 limits assumed): as above

What is called EC50 is the concentration needed to bring the measured effect to its halfway point. As to `CN(C)CCCN1c2ccccc2CCc2ccccc21` [Imipramime, imipramine], the “% cell viability ± SEM ScGT1” value in series [1] was determined as 100 ± 7%. Also, the EC50 in series [2] worked out at 5.5 ± 0.5 µM; in series [4], 6.2 ± 0.4 µM. Also, the “% cell viability ± SEM ScN2a” value in series [3] worked out at 100 ± 5%.

As for `CCN(CC)CCCC(C)Nc1c2ccc(Cl)cc2nc2ccc(OC)cc12` (centres unmarked) [Quinacrine, quinacrine], the “% cell viability ± SEM ScGT1” value in series [1] turned out to be 100 ± 4%. The “% cell viability ± SEM ScN2a” value in series [3] turned out to be 100 ± 2%.

Regarding sodium polystyrenesulfonate [PSS], in series [1], the “cytotoxicity to the neurons” value is recorded as “weak cytotoxicity” and the dead cells entry is listed as “around 20%”.
